For one series, the target named is T1, human 11-β-HSD1 enzyme (Homo sapiens, UniProt P28845).
T1 construct: made in house; host or cells: Pichia pastoris
As to the kind of experiment: human 11-β-HSD1 enzyme assay (scintillation proximity assay). Type of series: biochemical. The note with it: human 11-β-HSD1 expressed in Pichia pastoris; Ki calculated from IC50 by Cheng-Prusoff. The text has this:
[1, 2(n)—^3H]-cortisone was purchased from Amersham Pharmacia Biotech. Anti-cortisol monoclonal mouse antibody, clone 6D6.7 was obtained from Immunotech and Scintillation proximity assay (SPA) beads coated with monoclonal antimouse antibodies were from Amersham Pharmacia Biotech. NADPH, tetrasodium salt was from Calbiochem and glucose-6-phosphate (G-6-P) was supplied by Sigma. The human 11-β-hydroxysteroid dehydrogenase type-I enzyme (11-β-HSD1) was expressed in Pichia pastoris. 18-β-glycyrrhetinic acid (GA) was obtained from Sigma. The serial dilutions of the compounds were performed on a Tecan Genesis RSP 150. Compounds to be tested were dissolved in DMSO (1 mM) and diluted in 50 mM Tris-HCl, pH 7.2 containing 1 mM EDTA.
The multiplication of plates was done on a WallacQuadra. The amount of the product [^3H]-cortisol, bound to the beads was determined in a Packard, Top Count microplate liquid scintillation counter.
The 11-β-HSD1 enzyme assay was carried out in 96 well microtiter plates (Packard, Optiplate) in a total well volume of 220 μL and contained 30 mM Tris-HCl, pH 7.2 with 1 mM EDTA, a substrate mixture tritiated Cortisone/NADPH (175 nM/181 μM), G-6-P (1 mM) and inhibitors in serial dilutions (9 to 0.15 μM). Reactions were initiated by the addition of human 11-β-HSD1, either as Pichia pastoris cell homogenate or microsomes prepared from Pichia pastoris (the final amount of enzyme used was varied between 0.057 to 0.11 mg/mL). Following mixing, the plates were shaken for 30 to 45 minutes at room temperature. The reactions were terminated with 10 μL 1 mM GA stop solution. Monoclonal mouse antibody was then added (10 μL of 4 μM) followed by 100 μL of SPA beads (suspended according to the manufacturers instructions). Appropriate controls were set up by omitting the 11-β-HSD1 to obtain the non-specific binding (NSB) value.
The plates were covered with plastic film and incubated on a shaker for 30 minutes, at room temperature, before counting. The amount of [^3H]-cortisol, bound to the beads was determined in a microplate liquid scintillation counter.
The calculation of the Ki values for the inhibitors was performed by use of Activity Base. The Ki value is calculated from IC50 and the Km value is calculated using the Cheng Prushoff equation (with reversible inhibition that follows the Michaelis-Menten equation): […] [Cheng, Y. C.; Prushoff, W. H. Biochem. Pharmacol. 1973, 22, 3099-3108]. The IC50 is measured experimentally in an assay wherein the decrease of the turnover of cortisone to cortisol is dependent on the inhibition potential of each substance. […] Illustrative of the invention, the following Ki values have been determined in the human 11-β-HSD1 enzyme assay (see Table 1): […]

For another series, the system named is bone nodule formation. The settings on record: cited from earlier work.

Structures are written as SMILES.

T1 sequence (P28845 whole entry): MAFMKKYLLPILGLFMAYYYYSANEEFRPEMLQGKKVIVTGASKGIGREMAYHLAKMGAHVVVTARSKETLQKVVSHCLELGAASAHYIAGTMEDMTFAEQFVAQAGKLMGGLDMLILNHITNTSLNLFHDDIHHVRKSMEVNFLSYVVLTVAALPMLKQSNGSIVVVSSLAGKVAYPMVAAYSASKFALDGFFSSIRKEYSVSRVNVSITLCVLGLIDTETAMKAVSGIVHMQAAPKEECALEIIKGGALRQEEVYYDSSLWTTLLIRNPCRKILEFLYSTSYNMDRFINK

On to `Cc1csc(NS(=O)(=O)c2cccc(Cl)c2C)n1` [Example 3, 3-Chloro-2-methyl-N-(4-methyl-1,3-thiazol-2-yl)benzenesulfonamide], for which the inhibition constant (Ki) on human 11-β-HSD1 enzyme is 122 nM.

`Cc1nc(NS(=O)(=O)c2c(Cl)cc(Cl)cc2Cl)sc1CC(Cl)(Cl)Cl` [Example 6, 2,4,6-trichloro-N-[4-methyl-5-(2,2,2-trichloroethyl)-1,3-thiazol-2-yl]benzenesulfonamide]: the melting point is 228 to 229 °C. The inhibition constant Ki on human 11-β-HSD1 enzyme is 123 nM.

`CCCc1csc(NS(=O)(=O)c2cccc(Cl)c2C)n1` [Example 11, 3-Chloro-2-methyl-N-(4-propyl-1,3-thiazol-2-yl)benzenesulfonamide]: the melting point came out at 169 °C.

`Cc1c(Cl)cccc1S(=O)(=O)Nc1nc(C(C)(C)C)cs1` [Example 15, N-(4-Tert-butyl-1,3-thiazol-2-yl)-3-chloro-2-methylbenzenesulfonamide] showed a melting point of 178 °C.

For the compound `C=Cc1csc(NS(=O)(=O)c2cccc(Cl)c2C)n1` [Example 18, 3-Chloro-2-methyl-N-(4-vinyl-1,3-thiazol-2-yl)benzenesulfonamide], the Ki at human 11-β-HSD1 enzyme is 90 nM.

As to `CC(=O)c1sc(NS(=O)(=O)c2ccc(Oc3cccc(Cl)c3C#N)cc2)nc1C` [Example 22, N-(5-acetyl-4-methyl-1,3-thiazol-2-yl)-4-(3-chloro-2-cyanophenoxy)benzenesulfonamide], on human 11-β-HSD1 enzyme, the inhibition constant Ki is 108 nM.

As to `CC1(C)[C@@H](OC(=O)CCC(=O)O)CC[C@]2(C)[C@H]3C(=O)C=C4[C@@H]5C[C@@](C)(C(=O)O)CC[C@]5(C)CC[C@@]4(C)[C@]3(C)CC[C@@H]12` [carbenoxolone], the “negative glucocorticoid effect on bone nodule formation” value in the series on bone nodule formation is “blocked”.

(Values after patent US7125900B2, “Inhibitors of 11-β-hydroxy steroid dehydrogenase type 1” (Biovitrum AB, priority 2000, dated 2006).)
